Measurements taken from ChEMBL document CHEMBL5523732, “Structure-Guided Design of Potent Coronavirus Inhibitors with a 2-Pyrrolidone Scaffold: Biochemical, Crystallographic, and Virological Studies” (J Med Chem, 2024).

How the values were obtained:
[1] = Cytotoxicity against cat CRFK cells incubated for 72 hrs by CytoTox 96 analysis; format: toxicity, cell-based, Felis catus
[2] = target: Replicase polyprotein 1ab (Severe acute respiratory syndrome coronavirus 2, UniProt P0DTD1); experiment: Inhibition of full length N-terminal his6-tagged SARS-CoV-2 3CL protease using FAM-SAVLQ as substrate preincubated with compound for 30 mins followed by substrate addition and measured after 30 mins by FRET assay
[3] = Inhibition of MERS-CoV 3CLpro using SG-QXL520 as substrate preincubated with compound for 30 mins followed by susbtrate addition and measured after 30 mins by FRET assay; design: species or system Middle East respiratory syndrome-related coronavirus
SARS-CoV-2 = experiment: Antiviral activity against SARS CoV-2 Wuhan-Hu-1 infected in HEK293T cells incubated for 24 hrs; format: functional, organism-based; conditions: Severe acute respiratory syndrome coronavirus 2, Wuhan-Hu-1, HEK-293T

Structure (SMILES) | CC50 at 72 h [1] [nM] | IC50 [2] [nM] | IC50 [3] [nM] | EC50 (SARS-CoV-2) [nM]
CC(C)C[C@H](NC(=O)OCC1CCN(Cc2ccccc2)C1=O)C(=O)N[C@H](C=O)C[C@@H]1CCNC1=O (some centres undefined) | > 50000 | 790 | 60 | –
CC(C)C[C@H](NC(=O)OCC1CCN(Cc2cccc(C(F)(F)F)c2)C1=O)C(=O)N[C@H](C=O)C[C@@H]1CCNC1=O (some centres undefined) | > 50000 | 850 | 70 | –
CC(C)C[C@H](NC(=O)OCC1CC(=O)N(CC2CC3CCC2C3)C1)C(=O)N[C@@H](C[C@@H]1CCNC1=O)C(O)S(=O)(=O)O (some centres undefined) | > 50000 | 170 | 70 | 80
CC(C)C[C@H](NC(=O)OC[C@@H]1CCC(=O)N1Cc1cccc(C(F)(F)F)c1)C(=O)N[C@@H](C[C@@H]1CCNC1=O)C(O)S(=O)(=O)O (some centres undefined) | > 50000 | 770 | 50 | 490
CC(C)C[C@H](NC(=O)OC[C@@H]1CCC(=O)N1C[C@H]1C[C@@H]2C=C[C@H]1C2)C(=O)N[C@H](C=O)C[C@@H]1CCNC1=O | > 50000 | 418 | 60 | –
CC(C)C[C@H](NC(=O)OC[C@@H]1CCC(=O)N1CCC1CCCCC1)C(=O)N[C@@H](C[C@@H]1CCNC1=O)C(O)S(=O)(=O)O (some centres undefined) | > 50000 | 580 | 90 | –
CC(C)C[C@H](NC(=O)OCC1CC(=O)N(Cc2ccco2)C1)C(=O)N[C@H](C=O)C[C@@H]1CCNC1=O (some centres undefined) | > 50000 | 550 | 70 | –
CC(C)C[C@H](NC(=O)OCC1CCN(C[C@H]2C[C@H]3C=C[C@@H]2C3)C1=O)C(=O)N[C@@H](C[C@@H]1CCNC1=O)C(O)S(=O)(=O)O (some centres undefined) | > 50000 | 550 | 150 | –
CC(C)C[C@H](NC(=O)OC[C@@H]1CCC(=O)N1Cc1ccccc1)C(=O)N[C@@H](C[C@@H]1CCNC1=O)C(O)S(=O)(=O)O (some centres undefined) | > 50000 | 490 | 90 | –
CC(C)C[C@H](NC(=O)OC[C@@H]1CCC(=O)N1Cc1ccccc1)C(=O)N[C@H](C=O)C[C@@H]1CCNC1=O | > 50000 | 430 | 130 | –
CC(C)C[C@H](NC(=O)OC[C@@H]1CCC(=O)N1CC1CCC(F)(F)CC1)C(=O)N[C@H](C=O)C[C@@H]1CCNC1=O | > 50000 | 550 | 60 | –
CC(C)C[C@H](NC(=O)OC[C@@H]1CCC(=O)N1CCc1ccccc1)C(=O)N[C@H](C=O)C[C@@H]1CCNC1=O | > 50000 | 730 | 140 | –
CC(C)C[C@H](NC(=O)OCC1CCN(Cc2ccccc2)C1=O)C(=O)N[C@@H](C[C@@H]1CCNC1=O)C(O)S(=O)(=O)O (some centres undefined) | > 50000 | 820 | 60 | –
CC(C)C[C@H](NC(=O)OC[C@H]1CCC(=O)N1CC1CCCCC1)C(=O)N[C@H](C=O)C[C@@H]1CCNC1=O | > 50000 | 500 | 70 | –
CC(C)C[C@H](NC(=O)OC[C@@H]1CCC(=O)N1Cc1ccco1)C(=O)N[C@H](C=O)C[C@@H]1CCNC1=O | > 50000 | 330 | 60 | –
CC(C)C[C@H](NC(=O)OCC1CC(=O)N(Cc2ccco2)C1)C(=O)N[C@@H](C[C@@H]1CCNC1=O)C(O)S(=O)(=O)O (some centres undefined) | > 50000 | 560 | 80 | –
CC(C)C[C@H](NC(=O)OCC1CC(=O)N(Cc2ccccc2)C1)C(=O)N[C@H](C=O)C[C@@H]1CCNC1=O (some centres undefined) | > 50000 | 720 | 80 | –

Structure (SMILES) | CC50 at 72 h [1] [nM] | IC50 [2] [nM] | IC50 [3] [nM] | EC50 (SARS-CoV-2) [nM]
CC(C)C[C@H](NC(=O)OCC1CCN(Cc2ccco2)C1=O)C(=O)N[C@H](C=O)C[C@@H]1CCNC1=O (some centres undefined) | > 50000 | 1960 | 130 | –
CC(C)C[C@H](NC(=O)OCC1CC(=O)N(Cc2ccccc2)C1)C(=O)N[C@@H](C[C@@H]1CCNC1=O)C(O)S(=O)(=O)O (some centres undefined) | > 50000 | 650 | 50 | –
CC(C)C[C@H](NC(=O)OC[C@@H]1CCC(=O)N1CCc1ccccc1)C(=O)N[C@@H](C[C@@H]1CCNC1=O)C(O)S(=O)(=O)O (some centres undefined) | > 50000 | 550 | 160 | –
CC(C)C[C@H](NC(=O)OC[C@@H]1CCC(=O)N1C[C@H]1C[C@@H]2CC[C@H]1C2)C(=O)N[C@H](C=O)C[C@@H]1CCNC1=O | > 50000 | 500 | 70 | –
CC(C)C[C@H](NC(=O)OCC1CCN(Cc2cccc(C(F)(F)F)c2)C1=O)C(=O)N[C@@H](C[C@@H]1CCNC1=O)C(O)S(=O)(=O)O (some centres undefined) | > 50000 | 880 | 60 | –
CC(C)C[C@H](NC(=O)OCC1CCN(Cc2ccco2)C1=O)C(=O)N[C@@H](C[C@@H]1CCNC1=O)C(O)S(=O)(=O)O (some centres undefined) | > 50000 | 2010 | 150 | –
CC(C)C[C@H](NC(=O)OCC1CCN(C[C@H]2C[C@H]3CC[C@@H]2C3)C1=O)C(=O)N[C@@H](C[C@@H]1CCNC1=O)C(O)S(=O)(=O)O (some centres undefined) | > 50000 | 510 | 130 | –
CC(C)C[C@H](NC(=O)OCC1CC(=O)N(Cc2cccc(C(F)(F)F)c2)C1)C(=O)N[C@H](C=O)C[C@@H]1CCNC1=O (some centres undefined) | > 50000 | 410 | 60 | –
CC(C)C[C@H](NC(=O)OC[C@@H]1CCC(=O)N1C[C@H]1C[C@@H]2C=C[C@H]1C2)C(=O)N[C@@H](C[C@@H]1CCNC1=O)C(O)S(=O)(=O)O (some centres undefined) | > 50000 | 450 | 60 | –
CC(C)C[C@H](NC(=O)OC[C@@H]1CCC(=O)N1CCC1CCCCC1)C(=O)N[C@H](C=O)C[C@@H]1CCNC1=O | > 50000 | 500 | 90 | –
CC(C)C[C@H](NC(=O)OC[C@@H]1CCC(=O)N1CC1CCC(F)(F)CC1)C(=O)N[C@@H](C[C@@H]1CCNC1=O)C(O)S(=O)(=O)O (some centres undefined) | > 50000 | 540 | 60 | –
CC(C)C[C@H](NC(=O)OC[C@H]1CCC(=O)N1CC1CCCCC1)C(=O)N[C@@H](C[C@@H]1CCNC1=O)C(O)S(=O)(=O)O (some centres undefined) | > 50000 | 510 | 80 | –
CC(C)C[C@H](NC(=O)OC[C@@H]1CCC(=O)N1C[C@H]1C[C@@H]2CC[C@H]1C2)C(=O)N[C@@H](C[C@@H]1CCNC1=O)C(O)S(=O)(=O)O (some centres undefined) | > 50000 | 410 | 60 | –
CC(C)C[C@H](NC(=O)OCC1CCN(C[C@H]2C[C@H]3CC[C@@H]2C3)C1=O)C(=O)N[C@H](C=O)C[C@@H]1CCNC1=O (some centres undefined) | > 50000 | 430 | 90 | –
CC(C)C[C@H](NC(=O)OCC1CC(=O)N(Cc2cccc(C(F)(F)F)c2)C1)C(=O)N[C@@H](C[C@@H]1CCNC1=O)C(O)S(=O)(=O)O (some centres undefined) | > 50000 | 350 | 70 | –
CC(C)C[C@H](NC(=O)OC[C@@H]1CCC(=O)N1Cc1ccco1)C(=O)N[C@@H](C[C@@H]1CCNC1=O)C(O)S(=O)(=O)O (some centres undefined) | > 50000 | 250 | 50 | –
CC(C)C[C@H](NC(=O)OCC1CCN(C[C@H]2C[C@H]3C=C[C@@H]2C3)C1=O)C(=O)N[C@H](C=O)C[C@@H]1CCNC1=O (some centres undefined) | > 50000 | 460 | 80 | –
